According to patent US10208009B2, “Hydroxyl pyranone compound, method for producing same, and cosmetics composition comprising compound” (AMOREPACIFIC CORPORATION, priority 2015, dated 2019):

Tested on: human adipose tissue derived mesenchymal stem cells (hAT-MSCs)
Experiment: Adipocyte differentiation promoting effect: adiponectin expression (ELISA) in differentiating mesenchymal stem cells
Assay type: cell-based
Design: Adiponectin (pg/ml, Avg ± S.D.): unit of the concentration uncertain
Details: for Adiponectin (pg/ml, Avg ± S.D.): medium collected on 14th day, ELISA; for expression level of adiponectin (in words): IDX differentiation medium + material, 14th day, summary of Table 1
Method: In order to examine the adipocyte differentiation promoting effect of the compounds prepared in the Example, the following test was carried out.
Adiponectin is a typical protein hormone secreted from adipocytes. It has been reported that as adipocytes are differentiated, the expression of adiponectin is increased. Therefore, the adipocyte differentiation promoting effect was confirmed by measuring the amount of adiponectin expressed in the cell culture medium when treated with the novel compound of the present invention, which is an indicator of adipocyte differentiation promoting.
The adipocyte differentiation was performed by culturing human adipose tissue derived mesenchymal stem cells (hAT-MSCs) from Lonza Inc. (Walkersville, Md., USA) according to Lonza's guidelines. The adipocyte differentiation was carried out using the method recommended by Lonza Inc., except that the adipocyte differentiation of adipose-derived mesenchymal stem cells is induced by using troglitazone (TRO) instead of indomethacin. Specifically, the mesenchymal stem cells were differentiated into adipocytes by adding the medium for adipocyte differentiation (hereinafter referred to as IDX), which was prepared by mixing […] of insulin, […] of Dexamethasone (DEXA), 0.5 mM of isobutylmethylxanthine (IBMX) and […] of TRO, to the culture medium of mesenchymal stem cells, and then culturing it.
In order to determine the expression level of adiponectin, after the medium for adipocyte differentiation was collected on the 14th day of differentiation, the amount of adiponectin was quantified using the Adiponectin ELISA Kit (R & D systems, Cat. No. DY1065) (each data value was corrected by the control group). The specific measurement method using Adiponectin ELISA Kit was as follows.
First, the capture antibody was reacted in a 96-well plate, washed with washing buffer solution, and then the material shown in Table 1 below was added and reacted at room temperature for 2 hours. Thereafter, while washing three times every time when going through each step, the detection antibody, the HRP enzyme, the substrate solution, and the stop solution were added in order and reacted for the time indicated in the protocol. After the final reaction, the absorbance was measured at a wavelength of 450 nm using a spectrophotometer.

[1] = IDX differentiation medium + material at 60 (unit uncertain)

Structure (SMILES)	Adiponectin (pg/ml, Avg ± S.D.) (IDX differentiation medium + material (concentration not given))	Adiponectin (pg/ml, Avg ± S.D.) (IDX differentiation medium + material at 400 (unit uncertain))	expression level of adiponectin (in words)	Adiponectin (pg/ml, Avg ± S.D.) [1]
COc1ccc(Cl)cc1C(=O)NCCc1ccc(S(=O)(=O)NC(=O)NC2CCCCC2)cc1 [Glibenclamide]	1920 ± 100 pg/mL			
O=c1cc(CO)occ1O [Kojic acid]		303 ± 98 pg/mL	not increased	
O=C(/C=C/c1ccc2c(c1)OCO2)OCc1cc(=O)c(O)co1 [Seletinoid G]				1505 ± 109 pg/mL
CC1=CCCC(C)(C)C1/C=C/C(=O)OCc1cc(=O)c(O)co1 (stereo not drawn) [compound of example (Formula 1), 3-(2,6,6-trimethyl-cyclohex-2-enyl)-propenoic acid 5-hydroxy-4-oxo-4H-pyran-2-ylmethyl ester]			increases almost similarly to that with Glibenclamide	1730 ± 120 pg/mL
